Assay results taken from the SangsterLogP compilation.

What was measured:
[1] = method code SF-HPLC, from DOI: 10.1016/0378-5173(84)90193-5; details: pH 4.0
[2] = method code SF-AS, from DOI: 10.1002/chin.198419165, PMID: 6653771; details: pH 2.5
[3] = not given; remark: listed apart in the source
[4] = method code SF-RC, from DOI: 10.1016/j.apradiso.2013.03.021, PMID: 23602704; details: pH 7.4
[5] = method code SF-AS, from DOI: 10.1002/jhrc.1240040906; details: pH 5.0
[6] = method code SF-HPLC, from DOI: 10.1016/0378-5173(85)90011-0
[7] = method code SF, from DOI: 10.1021/jm00002a007, PMID: 7830268
[8] = method code SF-AS, from DOI: 10.1002/jps.2600711105; details: pH 7.4
[9] = not given; remark: listed apart in the source
[10] = not given; remark: listed apart in the source
[11] = method code SF-AS, from DOI: 10.1016/s0378-5173(98)00405-0, PMID: 10089287; details: pH 7.4
[12] = method code SF-HPLC, from DOI: 10.1023/a:1007522626070, PMID: 10714611; details: pH 7.4
[13] = method code SF-RC, from DOI: 10.1016/0006-2952(75)90159-8, PMID: 1168477
[14] = method code SF, from DOI: 10.1023/a:1018952108327, PMID: 7855051; details: pH 5.0
[15] = method code SF-AS, from DOI: 10.1016/0009-2797(77)90097-7, PMID: 407012; details: pH 7.0
[16] = not given; remark: listed apart in the source
[17] = method code SF, from Korenman, I.; Polumestnaya, I. (1982). Principles of interfacial distribution of certain substituted naphthalenes. Zh. Prikl. Khim., 55(2)364-367.
[18] = method code SF-RC, from Lázníček, M., Waisser, K., Květina, J., Beňo, P., & Tichý, M. (1985). QSAR methods in pharmacokinetic analysis. QSAR in Toxicology and Xenobiochemistry, 249-256.; details: pH 1.0
[19] = method code SF-AS, from DOI: 10.1016/0378-5173(82)90005-9; details: pH 3.0
[20] = method code SF-AS, from DOI: 10.1271/bbb1961.46.2755
[21] = method code SF-AS, from DOI: 10.1248/cpb.39.1217
[22] = method code SF-RC, from DOI: 10.1002/jlcr.1525
[23] = not given; remark: listed apart in the source
[24] = method code SF-CR+AS, from Korenman, I.; Lineva, S.; Gezikova, N. (1978). Extraction of naphthol-sulfonic acids from aqueous solution. Zh. Prikl. Khim., 51(4)869-871.
[25] = not given; remark: listed apart in the source
[26] = method code SF-AS, from PMID: 6692390; details: pH 4.0
[27] = method code SF-HPLC, from DOI: 10.1248/bpb.16.154, PMID: 8364451
[28] = not given; remark: listed apart in the source
[29] = method code SF-AS, from DOI: 10.1081/jlc-100100410; details: pH 4.0
[30] = method code SF-HPLC, from DOI: 10.1111/j.2042-7158.1995.tb05807.x, PMID: 7791035; details: pH 7.0
[31] = method code SF-GLC, from DOI: 10.1016/j.chemosphere.2004.08.061, PMID: 15519382
[32] = not given; remark: listed apart in the source
[33] = method code SF-AS, from DOI: 10.1248/cpb.36.1393; details: pH 7.4
[34] = not given; remark: listed apart in the source
[35] = method code SF, from DOI: 10.1002/jbm.820150603, PMID: 7309762
[36] = method code SF-HPLC, from DOI: 10.1002/ps.2780130506
[37] = method code SF-AS, from DOI: 10.1016/s0006-2952(02)01074-2, PMID: 12392818; details: pH 7.4
[38] = method code SF, from DOI: 10.1246/bcsj.60.4357
[39] = method code SF-AS, from DOI: 10.1021/jm00297a026, PMID: 5441130
[40] = method code SF, from DOI: 10.1021/ac00105a018
[41] = method code SF-GLC, from PMID: 6629728; details: pH 7.4
[42] = method code SF-AS, from Korenman, Y.; Pazynin, T. (1972). Distribution of nitrosonaphthols between organic solvents and water. J. anal. chem. USSR, 27(4)723-725.; details: pH 2.0
[43] = method code SF-AS, from DOI: 10.1016/0039-9140(66)80126-1, PMID: 18959847; details: pH 7.5
[44] = method code SF-AS, from DOI: 10.1016/0005-2744(69)90103-x, PMID: 4387594
[45] = method code …, from Korenman, I.; Polumestnaya, I.; Mezentseva, P. (1979). Investigations of the relationship of extraction of 1-naphthol and some of its derivatives by the method of correlation equations. Zh. Prikl. …; details: pH 2.0
[46] = method code SF-HPLC, from DOI: 10.1021/jm701549s, PMID: 18558667; details: pH 7.4
[47] = method code SF-CR+AS, from Korenman, I.; Tishchenko, M.; Kombarova, A. (1977). Distribution of dihydroxynaphthalenes between higher alcohols and water. Zh. Prikl. Khim., 50(4)899-901.; details: pH 2.0
[48] = method code SF-ESR, from DOI: 10.1111/1523-1747.ep12319780, PMID: 2551971; details: pH 7.0

O=c1[nH]cc(F)c(=O)n1Oc1ccccc1
logD [1]: 0.8

O=C(O)c1ccccc1NCCO
logD [2]: 1.16

COC(=O)Nc1nc2ccccc2[nH]1
logP: 1.75

Clc1ccc2ccccc2c1
logP [3]: 4.07

Nc1nc(=O)n([C@H]2C[C@H](O)[C@@H](CO)O2)cc1I
logD [4]: -0.94

NC(=O)c1cnc2n(c1=O)CCCC2
logD [5]: -0.38

CCCC(=O)n1ncc2c(=O)[nH]cnc21
logP [6]: 0.85

CCOP(=O)(OCC)C1(C)CCC=[N+]1[O-] (centres undefined)
logP [7]: -1.22

CC(=O)c1nc([N+](=O)[O-])n(CC(C)O)c1C (centres undefined)
logD [8]: 0.37

Cn1c(C(F)(F)F)nc2ccccc21
logP [9]: 3.98

NC1CC1c1ccccc1 (centres undefined)
logP [10]: 1.49

Cc1cc(=O)n2ccccc2n1
logD [11]: 0.6

CCn1nnc(C2=CCC[N+](C)([O-])C2)n1 (centres undefined)
logD [12]: -1.5

CCCN(C(C)=O)C(C)C
logP [13]: 1.48

CN1C(CCl)Nc2cc(Cl)c(S(N)(=O)=O)cc2S1(=O)=O (centres undefined)
logD [14]: 0.6

CN(C)c1nc(N(C)C)nc(N(C)O)n1
logD [15]: 1.61

ClC1=C(Cl)C2(Cl)C3C(Cl)C=CC3C1(Cl)C2(Cl)Cl (centres undefined)
logP [16]: 5.58

O=S(=O)(O)c1cc(O)c2ccccc2c1
logP [17]: -0.18

O=C(O)CCc1ccccc1I
logD [18]: 2.47

O=C1NC(=S)NC(=O)C12CCCCC2
logD [19]: 1.78

O=C1COC(=O)N1c1ccccc1
logP [20]: 0.93

Cc1nccnc1CC(C)C
logP [21]: 1.96

O=C(O)CN(CCN1CCN=C1[N+](=O)[O-])CC(=O)O
logP [22]: -0.82

CCCCC1C(=O)NC(=O)N(C)C1=O (centres undefined)
logP [23]: 1.1

O=S(=O)(O)c1cccc2c(O)cccc12
logP [24]: -0.17

Nc1ccc([N+](=O)[O-])c2ccccc12
logP [25]: 1.77

COc1ccc(NC(=O)N(C)N=O)cc1
logD [26]: 0.64

O=C(O)CNC(=O)c1cc(O)ccc1O
logP [27]: 0.28

Clc1ccc2ccc(Cl)cc2c1
logP [28]: 4.81

Nc1ccc(S(=O)(=O)Nc2ccc(Cl)nn2)cc1
logD [29]: 0.86

NC(=O)NC(=O)Cc1ccccc1
logD [30]: 0.66

Cn1c(Cl)c(Br)c(Cl)c1-c1c(Br)c(Br)c(Cl)n1C
logP [31]: 6.5

O=c1[nH]c(-c2ccccc2)nc2nn[nH]c12
logP [32]: 1.27

[O-][n+]1ccc(Cl)c2ccc(Cl)cc21
logD [33]: 1.85

CC(=O)Nc1ccc(OC(=O)CBr)cc1
logP [34]: 1.08

C=C(C)C(=O)OCCCC
logP [35]: 2.6

CNC(=O)ON=Cc1ccc(Cl)c(Cl)c1
logP [36]: 2.89

OC1CCOc2ccccc21 (centres undefined)
logD [37]: 1.31

CC(C)c1cc([N+](=O)[O-])cc([N+](=O)[O-])c1O
logP [38]: 3.1

CCCCn1cnc2c(N)ncnc21
logP [39]: 1.25

CCCc1ccc(O)cc1
logP [40]: 3

C1CCC(C2CO2)CC1 (centres undefined)
logD [41]: 2.43

O=Nc1c(O)ccc2ccccc12
logD [42]: 2.28

Cc1ccc2cccc(O)c2n1
logD [43]: 2.33

CCCNc1ccccc1
logP [44]: 2.45

O=Nc1c(Br)cc2ccccc2c1O
logD [45]: 2.93

CN(C)C(=O)c1ccc(Br)cc1
logD [46]: 1.83

Oc1cc(O)c2ccccc2c1
logD [47]: 1.97

CC1(C)CCC(C)(C)N1[O]
logD [48]: 1
